Here are results for 27 molecules from ChEMBL document CHEMBL1145128, “New prolyl oligopeptidase inhibitors developed from dicarboxylic acid bis(l-prolyl-pyrrolidine) amides” (J Med Chem, 2003).

Molecules are shown by their SMILES.

The nature of series [1]: Partition coefficient (logP). It is filed as physicochemical. Conditions: octanol/water.
Series [2] deals with Prolyl endopeptidase (Sus scrofa, UniProt P23687).
Description: In vitro inhibition of prolyl oligopeptidase (POP) from pig brain
The target in series [3] is Prolyl endopeptidase (Sus scrofa) (UniProt P23687). The series is described as follows: Compound was tested for in vitro inhibition of prolyl oligopeptidase (POP) from pig brain at 0.1 mM.
Prolyl endopeptidase (Sus scrofa), sequence (P23687 whole entry, looked up): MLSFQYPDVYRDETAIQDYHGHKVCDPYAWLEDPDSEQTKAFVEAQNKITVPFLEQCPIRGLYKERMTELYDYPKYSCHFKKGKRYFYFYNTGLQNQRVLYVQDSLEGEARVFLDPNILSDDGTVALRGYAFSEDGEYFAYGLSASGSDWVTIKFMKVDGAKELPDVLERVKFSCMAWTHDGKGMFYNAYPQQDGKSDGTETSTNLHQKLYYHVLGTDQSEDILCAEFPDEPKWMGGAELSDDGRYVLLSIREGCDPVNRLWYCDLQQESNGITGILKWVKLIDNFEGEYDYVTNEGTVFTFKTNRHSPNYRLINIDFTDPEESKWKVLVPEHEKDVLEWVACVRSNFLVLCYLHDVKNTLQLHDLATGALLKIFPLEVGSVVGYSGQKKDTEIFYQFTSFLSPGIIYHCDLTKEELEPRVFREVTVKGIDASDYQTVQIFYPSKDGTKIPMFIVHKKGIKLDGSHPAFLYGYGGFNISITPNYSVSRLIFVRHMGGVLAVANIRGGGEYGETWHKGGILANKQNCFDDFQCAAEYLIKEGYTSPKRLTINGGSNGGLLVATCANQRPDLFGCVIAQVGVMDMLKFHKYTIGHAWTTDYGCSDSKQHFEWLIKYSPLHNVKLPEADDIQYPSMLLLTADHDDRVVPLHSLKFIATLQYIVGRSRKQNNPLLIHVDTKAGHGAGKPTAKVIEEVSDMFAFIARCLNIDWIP

Prolyl endopeptidase, sequence (P23687 whole entry): as the sequence (P23687 whole entry, looked up) above

Turning to `N#C[C@H]1CCCN1C(=O)[C@@H]1CCCN1C(=O)c1cccc(C(=O)N2CCC[C@@H]2C(=O)C2CCCC2)c1`, in series [1], the lipophilicity (logP) was determined as 0.8. For the same molecule, in series [2], 1.1 nM corresponded to half-maximal inhibition (IC50). `CC(=O)[C@H]1CCCN1C(=O)c1cccc(C(=O)N2CCC[C@H]2C(=O)N2CCC[C@@H]2C#N)c1` came in with a logP in series [1] of -0.6. This molecule came in with an IC50 in series [2] of 4.2 nM. For `CSCC[C@H](NC(=O)c1cccc(C(=O)N[C@H](CCSC)C(=O)N2CCCC2)c1)C(=O)N1CCCC1`, the IC50 in series [2] came out at 110 nM.

In turn, `COC(=O)[C@H]1CCCN1C(=O)c1cccc(C(=O)N2CCC[C@H]2C(=O)C2CCCC2)c1` had a 50% inhibitory concentration (IC50) in series [2] of 640 nM.

The molecule `O=C([C@@H]1CCCN1C(=O)c1cccc(C(=O)N2CCC[C@H]2C(=O)N2CCCC2)c1)N1CCCC1` registered a logP in series [1] of -0.2. With `N#C[C@H]1CCCN1C(=O)[C@@H]1CCCN1C(=O)c1cccc(C(=O)N2CCC[C@@H]2C(=O)C2CCCCC2)c1`, the IC50 in series [2] worked out at 0.72 nM. `CC(C)C(=O)[C@H]1CCCN1C(=O)c1cccc(C(=O)N2CCC[C@H]2C(=O)N2CCC[C@@H]2C#N)c1` gave a logP in series [1] of 0.3. The molecule also gave a concentration for half-maximal inhibition (IC50) in series [2] of 1.6 nM. Molecule `CC(=O)[C@H]1CCCN1C(=O)c1cccc(C(=O)N2CCC[C@H]2C(=O)N2CCC[C@@H]2C(=O)CO)c1` showed a half-inhibitory concentration (IC50) in series [2] of 1.2 nM.

Consider `O=C(N[C@@H](Cc1ccccc1)C(=O)N1CCCC1)c1cccc(C(=O)N[C@H](Cc2ccccc2)C(=O)N2CCCC2)c1`, for which, in series [2], it took 81 nM to reach half-maximal inhibition (IC50).

`N#C[C@H]1CCCN1C(=O)[C@@H]1CCCN1C(=O)c1cccc(C(=O)N2CCC[C@@H]2C(=O)c2ccccc2)c1` displayed a logP in series [1] of 1.1. In series [2], this molecule came in with a half-inhibitory concentration (IC50) of 1.3 nM. In series [1], `O=C(C1CCCC1)[C@H]1CCCN1C(=O)c1cccc(C(=O)N2CCC[C@H]2C(=O)C2CCCC2)c1` registered a logP of 2.7. The molecule further registered an IC50 in series [2] of 78 nM.

`O=C([C@H]1CCCN1C(=O)c1cccc(C(=O)N2CCC[C@H]2C(=O)N2CCNCC2)c1)N1CCCC1`: in series [2], the IC50 was determined as 33 nM. For `C[C@H](NC(=O)c1cccc(C(=O)N2CCC[C@H]2C(=O)N2CCCC2)c1)C(=O)N1CCCC1`, the IC50 in series [2] was found to be 39 nM. Still for that read-out and setting: next, `C[C@H](NC(=O)c1cccc(C(=O)N[C@H](C)C(=O)N2CCCC2)c1)C(=O)N1CCCC1`: 87 nM; `O=C(CO)[C@@H]1CCCN1C(=O)[C@@H]1CCCN1C(=O)c1cccc(C(=O)N2CCC[C@H]2C(=O)N2CCCC2)c1`: 0.39 nM; `CC(C)(CC(=O)N1CCC[C@H]1C(=O)C1CCCC1)CC(=O)N1CCC[C@H]1C(=O)N1CCC[C@H]1C#N`: 0.57 nM. Regarding `O=C(NCc1ccccc1)[C@@H]1CCCN1C(=O)c1cccc(C(=O)N2CCC[C@@H]2C(=O)N2CCCC2)c1`, in series [2], inhibition was half-maximal at 31 nM (IC50).

`CC(=O)[C@H]1CCCN1C(=O)c1cccc(C(=O)N2CCC[C@H]2C(=O)N2CCCC2)c1`: the concentration for half-maximal inhibition (IC50) in series [2] is 65 nM. Same read-out and setting: as for `O=C(NCC(=O)N1CCCC1)c1cccc(C(=O)NCC(=O)N2CCCC2)c1`, the figure is 640 nM. Turning to `CC(C)(CC(=O)N1CCC[C@H]1C(=O)C1CCCC1)CC(=O)N1CCC[C@H]1C(=O)N1CCC[C@H]1C(=O)CO`, in series [1], the logP was found to be 0.7. In series [2], `O=C(C1CCCC1)[C@H]1CCCN1C(=O)c1cccc(C(=O)N2CCC[C@H]2C(=O)N2CCCC2)c1` yielded an IC50 of 14 nM. Molecule `CC(=O)[C@H]1CCCN1C(=O)c1cccc(C(=O)N2CCC[C@H]2C(C)=O)c1` yielded an inhibition in series [3] of 54%.

In series [2], `CC(C)(C)OC(=O)N1CCN(C(=O)[C@H]2CCCN2C(=O)c2cccc(C(=O)N3CCC[C@H]3C(=O)N3CCCC3)c2)CC1` gave a half-maximal inhibitory concentration (IC50) of 170 nM.

In series [1], `O=C(CO)[C@H]1CCCN1C(=O)[C@@H]1CCCN1C(=O)c1cccc(C(=O)N2CCC[C@@H]2C(=O)C2CCCC2)c1` had a log partition coefficient (logP) of 0.2. In series [2], this molecule displayed an IC50 of 0.61 nM.

With `COC(=O)[C@H]1CCCN1C(=O)c1cccc(C(=O)N2CCC[C@H]2C(=O)N2CCCC2)c1`, the midpoint of inhibition in series [2], the IC50, lay at 54 nM. The same measure, in the same setting: next, `O=C([C@H]1CCCN1C(=O)c1cccc(C(=O)N2CCC[C@H]2C(=O)N2CCCCCC2)c1)N1CCCC1`: 23 nM; `O=C(c1ccccc1)[C@H]1CCCN1C(=O)c1cccc(C(=O)N2CCC[C@H]2C(=O)N2CCCC2)c1`: 18 nM.
